ChEMBL document CHEMBL1152091, “The synthesis and identification of 4,6-diaminoquinoline derivatives as potent immunostimulants” (1992)

System: Mus musculus
Test: Immunostimulant activity after subcutaneous administration using mouse protection assay
Assay type: functional
Conditions: sc, read-out: MED

SMILES: Nc1ccc2nc(-c3ccccc3)cc(NC3CCCCC3)c2c1
- minimal effective dose: > 100 mg/kg

SMILES: Nc1ccc2nc(-c3ccccc3)cc(Nc3ccc(F)c(F)c3)c2c1
- minimal effective dose: 6.25 mg/kg

SMILES: CC(=O)Nc1ccc2nc(C)cc(Nc3ccc(OCC4CCCCC4)cc3)c2c1
- minimal effective dose: 12.5 mg/kg

SMILES: Cc1cc(Nc2ccc(OCC3CCCCC3)cc2)c2cc(N)ccc2n1
- minimal effective dose: 6.25 mg/kg

SMILES: Nc1ccc2nccc(Nc3ccc(OCC4CCCCC4)cc3)c2c1
- minimal effective dose: 12.5 mg/kg

SMILES: Nc1ccc2nc(-c3ccccc3)cc(Nc3ccc(OCC4CCCCC4)cc3)c2c1
- minimal effective dose: 5.6 mg/kg

SMILES: Cc1cc(Nc2ccc(OCC3CCCCC3)cc2)c2cc(NC(N)=O)ccc2n1
- minimal effective dose: 50 mg/kg

SMILES: CCOc1ccc(Nc2ccnc3ccc(N)cc23)cc1
- minimal effective dose: 6.25 mg/kg

SMILES: Cc1cc(Nc2ccc(F)c(F)c2)c2cc(N)ccc2n1
- minimal effective dose: 12.5 mg/kg

SMILES: CC(=O)Nc1ccc2nccc(Nc3ccc(OCC4CCCCC4)cc3)c2c1
- minimal effective dose: 6.25 mg/kg

SMILES: CS(=O)(=O)Nc1ccc2nc(-c3ccccc3)cc(Nc3ccc(OCC4CCCCC4)cc3)c2c1
- minimal effective dose: 12.5 mg/kg

SMILES: O=[N+]([O-])c1ccc2nc(-c3ccccc3)cc(Nc3ccc(Cl)cc3)c2c1
- minimal effective dose: > 50 mg/kg

SMILES: Nc1ccc2nc(-c3ccccc3)cc(Nc3ccc(Cl)cc3)c2c1
- minimal effective dose: 5.6 mg/kg

SMILES: CCCCOc1ccc(Nc2ccnc3ccc(N)cc23)cc1
- minimal effective dose: 25 mg/kg

SMILES: O=[N+]([O-])c1ccc2nc(-c3ccccc3)cc(Nc3ccc(OCC4CCCCC4)cc3)c2c1
- minimal effective dose: > 50 mg/kg

SMILES: NC(=O)Nc1ccc2nc(-c3ccccc3)cc(Nc3ccc(OCC4CCCCC4)cc3)c2c1
- minimal effective dose: 6.25 mg/kg
